Where two headings read alike, the source gives them in different places.
Legend:
human tumor xenografts = human tumor xenografts in mice; Pantazis et al.; cited from earlier work
human xenografts = test: Raw CZ48 powders in cottonseed oil against 29 human xenografts in nude mice; assay type: in vivo; details: cancerous mice
Source text: (§1) Raw or native CZ48 powders have been intensively tested against human xenografts grown in nude mice. […] Cmax refers to the peak plasma concentration of the drug after administration.

[1] = PK absorption of CZ48 in dogs; assay type: in vivo; details: Dog, 400 mg/kg based on API content
Source text: Tmax refers to time to reach Cmax.

[2] = PK studies of raw CZ48 cottonseed oil suspension in mice; details: dose 100 mg/kg or higher
Source text: as §1

human HT29-colon tumor = details: nude mice; Cao et al. Cancer Research 2009; cited from earlier work
[3] = assay type: physicochemical; details: PSD of raw powders
[4] = Wall et al. 1969; Giovanella et al. 1991; cited from earlier work
[5] = analyte in blood, source CZ48 composite particles equivalent to 400 mg/kg API, single dose, female healthy mice, CPT is the metabolite

SMILES: CC[C@@]1(O)C(=O)OCc2c1cc1n(c2=O)Cc2cc3c([N+](=O)[O-])cccc3nc2-1 [9NC, 9-nitrocamptothecin]
- times more potent than CPT (human tumor xenografts): 2-3 times

SMILES: CC[C@@]1(O)C(=O)OCc2c1cc1n(c2=O)Cc2cc3ccccc3nc2-1 [CPT, 20(S)-camptothecin, reference compound]
- AUC0-24 [5]: 51.7 ng·h/mL
- Cmax [5]: 26.0 ng/mL
- Tmax [5]: 30 min

SMILES: CCC(=O)O[C@]1(CC)C(=O)OCc2c1cc1n(c2=O)Cc2cc3ccccc3nc2-1 [CZ48, camptothecin-20-O-propionate hydrate]
- Cmax minimum requirement for a positive effect (human xenografts): 100 ng/mL
- AUC0-24 [1]: 38.7 ng·h/mL
- Cmax [1]: 3.4 ng/mL
- Tmax [1]: 240 min
- Tmax (Mouse, 400 mg/kg based on API content): 60 min
- Tmax [5]: 30 min
- Cmax [2]: greater than 100 ng/ml
- dose needed to achieve the same result (good activity against HT29-colon tumor) (human HT29-colon tumor): 1000 mg/kg
- D[4,3] [3]: 7.612 μm
- d(0.1) [3]: 2.612 μm
- d(0.5) [3]: 6.220 μm
- d(0.9) [3]: 14.556 μm

SMILES: CC[C@@](O)(C(=O)[O-])c1cc2n(c(=O)c1CO)Cc1cc3ccccc3nc1-2.[Na+] [sodium carboxylate salt]
- potency relative to native camptothecin with closed lactone ring [4]: 10%
